Assay results: patent US11623944B2, “Paenibacillus strain, antifungal compounds, and methods for their use” (Bayer CropScience LP, priority 2015, dated 2023)
Where a SMILES comes first, the peptide text is derived from it. Bridges are numbered along the chain shown (N, C = ends). [ ]: non-standard residue; d: D form. The star is where a group is joined. ξ: configuration not given here. Pentadecanoyl(3ξ-OH,15-Gua) = N=C(N)NCCCCCCCCCCCCC(O)CC(=O)*; d(aThr) = C[C@@H](O)[C@@H](N)C(=O)O

Columns and labels:
[1] = test system: Paenibacillus sp. strain NRRL B-50972; assay: Antibiotic sensitivity on sLB agar; format: cell-based; settings: growth after 24, 48, 72 hours at 30° C.
[2] = test system: Alternaria solani (ALTESO); assay: In vitro antifungal 96-well plate assay (PRESTOBLUE); format: cell-based; settings: for potency of asparagine analogue relative to its glutamine counterpart: Fusaricidin A vs Fusaricidin B, LiF08a vs LiF08b; for potency of asparagine analogue relative to its glutamine counterpart / relative potency of analogues differing at amino acid positions (2) and (3): FIG. 17; for relative potency of analogues differing at amino acid positions (2) and (3): Fusaricidin A, LiF05a, LiF06a, LiF08a compared; for Efficacy in % found: 0.25 mg/mL, alone
[3] = test system: Xanthomonas campestris (XANTAV); assay: In vitro antibacterial 96-well plate assay (absorbance)
Description: (§1) The in vitro antibacterial 96-well plate assay uses absorbance as an indicator for bacterial growth. The assay measures the potency of a sample to inhibit bacterial growth by comparing the absorbance of the untreated wells to the sample wells. The last dilution/concentration that inhibits the growth of the bacteria is called the MIC (minimum inhibitory concentration) and this value can be used to compare the efficacy of different samples. The assay was evaluated with three agricultural-relevant bacterial diseases: Xanthomonas campestris (XANTAV), Pseudomonas syringae (PSDM™), and Erwinia carotovora (ERWICA).

[4] = test system: Pseudomonas syringae (PSDMTM); assay: as above; settings: NDR = no inhibition of bacterial growth at the highest concentrations tested
Description: as §1

[5] = test system: Erwinia carotovora (ERWICA); assay: as above; settings: NDR = no inhibition of bacterial growth at the highest concentrations tested
Description: as §1

[6] = test system: Colletotrichum lagenarium (COLLLA); assay: In vitro antifungal 96-well plate assay (PRESTOBLUE); format: cell-based; settings: Minimum Inhibitory Concentration for 80%
[7] = test system: Botrytis cinerea (BOTRCI); assay: as above; format: cell-based; settings: Minimum Inhibitory Concentration for 80%
Description: The in vitro antifungal 96-well plate assay utilizes the resazurin-based cell viability reagent PRESTOBLUE® as an indicator for fungal growth. […] The assay was prepared with three agricultural-relevant fungal diseases: Alternaria solani ([…]), Colletotrichum lagenarium (COLLLA), and Botrytis cinerea (BOTRCI).

O=C(N[C@H](CO)[C@H](O)c1ccc([N+](=O)[O-])cc1)C(Cl)Cl [Chloramphenicol]
Sensitive/Resistant ([1]; antibiotic 5 μg/mL): Resistant

CC[C@H]1OC(=O)[C@H](C)[C@@H](O[C@H]2C[C@@](C)(OC)[C@@H](O)[C@H](C)O2)[C@H](C)[C@@H](O[C@@H]2O[C@H](C)C[C@H](N(C)C)[C@H]2O)[C@](C)(O)C[C@@H](C)C(=O)[C@H](C)[C@@H](O)[C@]1(C)O [Erythromycin]
Sensitive/Resistant ([1]; antibiotic 5 μg/mL): Sensitive

CC(C)[C@@H]1NC(=O)[C@@H](C(C)C)NC(=O)[C@@H](NC(=O)CC(O)CCCCCCCCCCCCN=C(N)N)[C@@H](C)OC(=O)[C@@H](C)NC(=O)[C@@H](CC(N)=O)NC(=O)[C@@H]([C@@H](C)O)NC1=O (some centres unmarked) [Fusaricidin A] ({Pentadecanoyl(3ξ-OH,15-Gua)}-T[dV]V[d(aThr)][dN][dA]; ester 1-C)
potency of asparagine analogue relative to its glutamine counterpart [2]: over twice more potent | relative potency of analogues differing at amino acid positions (2) and (3) [2]: most potent | MIC80 ALTESO ([2]; Minimum Inhibitory Concentration for 80%): 1.6 ppm | Efficacy in % found ([2]; Table 23): 39.0% | Efficacy in % found ([2]; Table 24): 42.0% | MIC80 XANTAV [3]: 24 ppm | MIC80 PSDMTM [4]: NDR* | MIC80 ERWICA [5]: 75 ppm | MIC80 COLLLA [6]: 6.3 ppm | MIC80 BOTRCI [7]: 1.5 ppm

CC[C@@H](C)[C@H]1NC(=O)[C@@H](NC(=O)CC(O)CCCCCCCCCCCCN=C(N)N)[C@@H](C)OC(=O)[C@@H](C)NC(=O)[C@@H](CC(N)=O)NC(=O)[C@@H]([C@@H](C)O)NC(=O)[C@H]([C@@H](C)CC)NC1=O (some centres unmarked) [LiF08a] ({Pentadecanoyl(3ξ-OH,15-Gua)}-T[dI]I[d(aThr)][dN][dA]; ester 1-C)
potency of asparagine analogue relative to its glutamine counterpart [2]: over twice more potent | relative potency of analogues differing at amino acid positions (2) and (3) [2]: most potent

CCC[C@@H]1C[C@@H](C(=O)N[C@@H]([C@H]2O[C@H](SC)[C@H](O)[C@@H](O)[C@H]2O)[C@@H](C)O)N(C)C1 [Lincomycin]
Sensitive/Resistant ([1]; antibiotic 25 μg/mL): Resistant

CN[C@@H]1[C@H](O)[C@H](NC)[C@H]2O[C@@]3(O)C(=O)C[C@@H](C)O[C@H]3O[C@@H]2[C@H]1O [Spectinomycin]
Sensitive/Resistant ([1]; antibiotic 100-250 μg/mL): Resistant (growth, albeit reduced,

CN(C)[C@@H]1C(=O)C(C(N)=O)=C(O)[C@@]2(O)C(=O)C3=C(O)c4c(O)cccc4[C@@](C)(O)[C@H]3C[C@@H]12 [Tetracyclin]
Sensitive/Resistant ([1]; antibiotic 5 μg/mL): Sensitive
